ChEMBL document CHEMBL4033624, “Synthesis and evaluation of adenosine containing 3-arylfuran-2(5H)-ones as tyrosyl-tRNA synthetase inhibitors” (Eur J Med Chem, 2017)
≈ marks a conversion by molar mass, not a printed value.

What was measured:
[1] = Inhibition of TyrRS (unknown origin) expressed in Escherichia coli using L-[ring-3,5-3H] tyrosine as substrate preincubated for 10 mins followed by substrate addition measured by liquid scintillation counting method; set-up: species or system Bacteria
[2] = system: Pseudomonas aeruginosa; experiment: Antibacterial activity against Pseudomonas aeruginosa ATCC 9027 after 4 to 5 hrs by MTT assay; type: functional
[3] = system: Staphylococcus aureus; experiment: Antibacterial activity against Staphylococcus aureus ATCC 6538 after 4 to 5 hrs by MTT assay; type: functional
[4] = system: Escherichia coli; experiment: Antibacterial activity against Escherichia coli ATCC 8739 after 4 to 5 hrs by MTT assay; type: functional

IC50 [1] [µM]	MIC50 [2] [µg/mL]	MIC50 [3] [µg/mL]	MIC50 [4] [µg/mL]	SMILES
> 100	> 100	> 100	> 100	COc1ccc(C2=C(OCC(=O)NC[C@H]3O[C@@H](n4cnc5c(N)ncnc54)[C@@H]4OC(C)(C)O[C@@H]43)COC2=O)cc1OC
26.1	33.6 (≈ 60.9 µM)	55.4 (≈ 100 µM)	29.4 (≈ 53.3 µM)	Nc1ncnc2c1ncn2[C@@H]1O[C@H](CNC(=O)COC2=C(c3ccc(Cl)cc3Cl)C(=O)OC2)[C@@H](O)[C@H]1O
> 100	> 100	> 100	> 100	CCOc1ccc(C2=C(OCC(=O)NC[C@H]3O[C@@H](n4cnc5c(N)ncnc54)[C@@H]4OC(C)(C)O[C@@H]43)COC2=O)cc1OCC
> 100	> 100	> 100	> 100	CC1(C)O[C@@H]2[C@H](O1)[C@@H](CNC(=O)COC1=C(c3ccc(F)cc3)C(=O)OC1)O[C@H]2n1cnc2c(N)ncnc21
31.7	47.4 (≈ 94.7 µM)	72.7 (≈ 145 µM)	39.2 (≈ 78.3 µM)	Nc1ncnc2c1ncn2[C@@H]1O[C@H](CNC(=O)COC2=C(c3ccc(F)cc3)C(=O)OC2)[C@@H](O)[C@H]1O
		0.57		CC1(C)S[C@@H]2[C@H](NC(=O)Cc3ccccc3)C(=O)N2[C@H]1C(=O)[O-].[Na+] [PENICILLIN G SODIUM]
	0.64 (≈ 1.93 µM)		0.1 (≈ 0.302 µM)	O=C(O)c1cn(C2CC2)c2cc(N3CCNCC3)c(F)cc2c1=O [CIPROFLOXACIN]
> 100	> 100	> 100	> 100	CCOc1ccc(C2=C(OCC(=O)NC[C@H]3O[C@@H](n4cnc5c(N)ncnc54)[C@H](O)[C@@H]3O)COC2=O)cc1OCC
33.4	63.7 (≈ 108 µM)	90.7 (≈ 153 µM)	60.2 (≈ 102 µM)	CC1(C)O[C@@H]2[C@H](O1)[C@@H](CNC(=O)COC1=C(c3ccc(Cl)c(Cl)c3)C(=O)OC1)O[C@H]2n1cnc2c(N)ncnc21
94.5	> 100	> 100	> 100	Nc1ncnc2c1ncn2[C@@H]1O[C@H](CNC(=O)c2cccc(Br)c2)[C@@H](O)[C@H]1O
56	82.8 (≈ 153 µM)	> 100	83.6 (≈ 155 µM)	CC1(C)O[C@@H]2[C@H](O1)[C@@H](CNC(=O)COC1=C(c3cccc(F)c3)C(=O)OC1)O[C@H]2n1cnc2c(N)ncnc21
> 100	> 100	> 100	> 100	CC1(C)O[C@@H]2[C@H](O1)[C@@H](CNC(=O)c1cccc(Br)c1)O[C@H]2n1cnc2c(N)ncnc21
24.3	25.6 (≈ 46 µM)	30.3 (≈ 54.4 µM)	15.8 (≈ 28.4 µM)	CC1(C)O[C@@H]2[C@H](O1)[C@@H](CNC(=O)COC1=C(c3ccccc3Cl)C(=O)OC1)O[C@H]2n1cnc2c(N)ncnc21
29.1	40.5 (≈ 72.1 µM)	75.1 (≈ 134 µM)	46.6 (≈ 83 µM)	Nc1ncnc2c1ncn2[C@@H]1O[C@H](CNC(=O)COC2=C(c3ccc(Br)cc3)C(=O)OC2)[C@@H](O)[C@H]1O
> 100	> 100	> 100	> 100	COc1ccc(C2=C(OCC(=O)NC[C@H]3O[C@@H](n4cnc5c(N)ncnc54)[C@H](O)[C@@H]3O)COC2=O)cc1OC
22.7	21.4 (≈ 38.4 µM)	39.6 (≈ 71.1 µM)	20.3 (≈ 36.4 µM)	CC1(C)O[C@@H]2[C@H](O1)[C@@H](CNC(=O)COC1=C(c3ccc(Cl)cc3)C(=O)OC1)O[C@H]2n1cnc2c(N)ncnc21
83.8	90.9 (≈ 154 µM)	> 100	> 100	CC1(C)O[C@@H]2[C@H](O1)[C@@H](CNC(=O)COC1=C(c3ccc(Cl)cc3Cl)C(=O)OC1)O[C@H]2n1cnc2c(N)ncnc21
92.6	> 100	> 100	98.6 (≈ 164 µM)	CC1(C)O[C@@H]2[C@H](O1)[C@@H](CNC(=O)COC1=C(c3ccc(Br)cc3)C(=O)OC1)O[C@H]2n1cnc2c(N)ncnc21
